# According to patent US9403806B1, “Cognition enhancing compounds and compositions, methods of making, and methods of treating” (NeuroSolis, Inc., priority 2010, dated 2016):
# Legend:
# [1] = molecular target: T1, human muscarinic M1 receptors (Homo sapiens, UniProt P11229); experiment: IP production in A9L cells with human M1 receptors (IPOne TR-FRET), Example 28; format: cell-based
# T1 construct: host or cells: A9L cells
# T1 sequence (P11229 1-460): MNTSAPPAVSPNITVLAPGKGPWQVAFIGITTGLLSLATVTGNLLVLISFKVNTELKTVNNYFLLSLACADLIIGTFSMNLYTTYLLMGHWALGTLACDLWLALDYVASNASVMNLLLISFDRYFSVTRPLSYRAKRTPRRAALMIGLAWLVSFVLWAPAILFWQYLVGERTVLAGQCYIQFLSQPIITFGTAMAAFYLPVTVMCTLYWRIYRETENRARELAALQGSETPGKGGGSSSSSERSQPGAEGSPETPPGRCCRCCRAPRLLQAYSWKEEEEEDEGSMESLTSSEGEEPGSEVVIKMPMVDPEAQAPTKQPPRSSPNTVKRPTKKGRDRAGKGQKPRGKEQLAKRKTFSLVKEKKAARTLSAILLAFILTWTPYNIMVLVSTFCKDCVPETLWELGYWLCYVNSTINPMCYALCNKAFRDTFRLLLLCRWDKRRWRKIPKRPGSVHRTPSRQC
# How it was run: (§1)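 A9L cells transfected with human M1 or M3 receptors, exposed to compound in medium with 10 mM LiCl and 10 mM HEPES (pH 7.4) for 60 min at 37 °C. IP in lysates measured by IPOne TR-FRET; efficacy expressed relative to full agonist (100%).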
# [2] = molecular target: T2, human muscarinic M3 receptors (Homo sapiens, UniProt P20309); experiment: IP production in A9L cells with human M3 receptors (IPOne TR-FRET), Example 28; format: cell-based
# T2 construct: host or cells: A9L cells
# How it was run: as §1
# [3] = molecular target: T3, human FMO1 Supersomes (Homo sapiens, UniProt Q01740); experiment: Metabolism by flavin monoxygenase 1 (FMO1) Supersomes; format: in vitro ADME; settings: after 6 hours (FIG. 2)
# T3 construct: purchased BD Biosciences 456241
# T3 sequence (Q01740 1-532): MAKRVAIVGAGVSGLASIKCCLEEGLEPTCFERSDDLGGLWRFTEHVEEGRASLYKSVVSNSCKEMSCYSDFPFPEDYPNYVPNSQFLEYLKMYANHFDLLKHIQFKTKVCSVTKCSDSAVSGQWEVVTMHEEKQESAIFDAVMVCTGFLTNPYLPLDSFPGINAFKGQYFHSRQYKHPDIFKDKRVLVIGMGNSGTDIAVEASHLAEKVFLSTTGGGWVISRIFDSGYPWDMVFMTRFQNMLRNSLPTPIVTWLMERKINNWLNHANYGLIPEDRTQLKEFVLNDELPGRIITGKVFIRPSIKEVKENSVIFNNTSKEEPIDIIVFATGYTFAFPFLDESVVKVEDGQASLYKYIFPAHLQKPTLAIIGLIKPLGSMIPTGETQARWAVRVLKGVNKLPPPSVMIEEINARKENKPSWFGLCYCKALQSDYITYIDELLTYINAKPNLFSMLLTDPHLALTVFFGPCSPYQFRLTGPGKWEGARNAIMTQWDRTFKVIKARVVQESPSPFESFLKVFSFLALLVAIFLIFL
# Description: […] Aliquots were removed every 10 minutes, and 1% formic acid was added to halt the reaction. Samples were centrifuged, filtered through 0.2 micron spinfilter and the amount of each compound in the supernatants was quantitated using LC/MS/MS.
# [4] = test system: pooled male Sprague-Dawley rat liver microsomes; experiment: Metabolism by rat liver microsomes; format: in vitro ADME; settings: 6 hours incubation (FIG. 3)
# Description: Compounds were incubated with pooled male Sprague-Dawley rat liver microsomes (BD Biosciences, #452501) and an NADP-regenerating system in a phosphate buffer (pH 7.4) for a total of 6 hours. Aliquots were removed every 2 hours, and 1% formic acid was added to halt the reaction. Samples were centrifuged, filtered through 0.2 micron spinfilter and the amount of each compound in the supernatants was quantitated using LC/MS/MS.
# [5] = test system: pooled male human liver microsomes; experiment: Metabolism by human liver microsomes, Example 33; format: in vitro ADME; settings: 6 hours incubation (FIGS. 4A, 4B)
# Description: Compounds were incubated with pooled male human liver microsomes (BD Biosciences, #452172) and an NADP-regenerating system in a phosphate buffer (pH 7.4) for a total of 6 hours. Aliquots were removed every 2 hours, and 1% formic acid was added to halt the reaction. Samples were centrifuged, filtered through 0.2 micron spinfilter and the amount of each compound in the supernatants was quantitated using LC/MS/MS.
# [6] = PAMPA test, Example 34; settings: PAMPA
# [7] = rat, in vivo, po
# [8] = in vitro; settings: PAMPA
# [9] = percentage of maximal stimulation by carbachol
# [10] = potency relative to carbachol at its EC50, semi-quantitative
# T2 sequence (P20309 whole entry): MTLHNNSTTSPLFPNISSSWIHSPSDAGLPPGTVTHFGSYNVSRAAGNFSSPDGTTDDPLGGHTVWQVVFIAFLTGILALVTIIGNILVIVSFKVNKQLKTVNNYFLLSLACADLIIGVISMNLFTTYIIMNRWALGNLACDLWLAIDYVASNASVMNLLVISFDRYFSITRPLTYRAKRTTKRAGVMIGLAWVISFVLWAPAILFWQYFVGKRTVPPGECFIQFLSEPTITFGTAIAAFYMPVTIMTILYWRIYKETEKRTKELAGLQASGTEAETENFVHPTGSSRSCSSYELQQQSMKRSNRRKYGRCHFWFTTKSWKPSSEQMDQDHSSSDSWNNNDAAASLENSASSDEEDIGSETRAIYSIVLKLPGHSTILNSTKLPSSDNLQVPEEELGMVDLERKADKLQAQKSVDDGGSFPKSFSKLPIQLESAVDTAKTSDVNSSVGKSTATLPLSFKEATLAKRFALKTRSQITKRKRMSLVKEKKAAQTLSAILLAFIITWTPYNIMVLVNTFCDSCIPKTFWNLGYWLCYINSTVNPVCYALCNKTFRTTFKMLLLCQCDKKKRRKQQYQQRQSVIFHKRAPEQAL
Structure (SMILES),potency and efficacy at M1 muscarinic receptors (in words) ([1]; huM1/A9L),selectivity between M1 and M3 receptors ([1]; huM1 versus huM3 A9L cells),"huM1/A9L Smax [1, 9]","huM1/A9L ED50 relative to CCh* [1, 10]","huM3/A9L Smax [2, 9]","huM3/A9L ED50 relative to CCh* [2, 10]",extent of metabolism in FMO Supersomes (in words) [3],metabolism in rat liver microsomes (in words) [4],metabolism in human liver microsomes (in words) [5],Papp [6],Brain/plasma ratio [7],Papp [8]
"Cc1noc(C2=CCCN(C)C2)n1 [Compound 36, 3-methyl-5-(1-methyl-1,2,5,6-tetrahydropyridin-3-yl)-1,2,4-oxadiazole]",reasonable potency and efficacy,shows some selectivity for M1 versus M3 receptors,72%,+ (+ potency 2-10x CCh),39%,+ (+ potency 2-10x CCh),almost completely metabolized,nearly completely metabolized,nearly completely metabolized,12.8 ×10⁻⁶ cm/s,,
CNC(=C[N+](=O)[O-])NCCSCc1ccc(CN(C)C)o1 [Ranitidine],,,,,,,,,,,Very low,0.26 ×10⁻⁶ cm/s
